{"source": "patent US20120190546A1", "about": "“HERBICIDAL COMPOSITION AND METHOD OF USE THEREOF” (SYNGENTA CROP PROTECTION LLC, priority 2007, published 2012)", "key": {"[1]": {"system": "white clover (Trifolium repens)", "assay": "Glasshouse trial: control of white clover with mesotrione and oxadiazon applied post-emergence", "assay_type": "in vivo", "parameters": "key to Synergy (actual vs expected), Plus Mesotrione at 100 g ai/ha / Synergy (actual vs expected), Plus Mesotrione at 150 g ai/ha: ‘n’indicates no synergy observed; *indicates synergy", "conditions": "for Synergy (actual vs expected), Plus Mesotrione at 100 g ai/ha / Synergy (actual vs expected), Plus Mesotrione at 150 g ai/ha: Student-Newman-Keuls test; for Actual weed control, Plus Mesotrione at 100 g ai/ha / Actual weed control, Plus Mesotrione at 150 g ai/ha: X-77 0.1% v/v, evaluated 7 and 14 DAT (not said which)", "procedure": "(§1) In the following tests, herbicides were applied at reduced field rates because herbicide effects are magnified in a glasshouse environment. The rates tested were selected to give between about 50 and 70% control with herbicides applied alone, so that any synergistic effect could be readily detected when testing mixtures.\n(§2) A glasshouse trial was carried out. White clover seeds were sown into standard glasshouse potting mix (1:1 v/v Promix:Vero sand soil) contained in 10 cm square plastic pots. Treatments were replicated three times. Mesotrione (in the form Callisto® 480SE) was applied post-emergence to white clover (Trifolium repens) at either 100 g ai/ha or 150 g ai/ha with or without oxadiazon (in the form Ronstar®). When used, oxadiazon was applied at a rate of 210 g ai/ha or 420 g ai/ha. The adjuvant system was X-77 at 0.1% v/v in deionised water. 200 litres of herbicide/adjuvant system was used per hectare. General weed control was evaluated at 7 and 14 days after treatment (DAT). It is noted that all herbicides were applied at reduced field rates because herbicide effects are magnified in a glasshouse environment. Rates were chosen to give a 50 to 70% level of control with herbicides applied alone as this allows for detection of any synergistic effect when tank mixtures are used.\n(§3) The results were evaluated using the Colby formula. The expected result for (A+B) is (A+B)−(AxB/100) where A and B are the ‘observed’ results for A and B on their own."}, "white clover": {"system": "white clover", "assay": "Glasshouse trial: control of white clover with mesotrione and oxadiazon applied pre-emergence", "assay_type": "in vivo, Trifolium repens", "parameters": "key to Synergy (actual vs expected), Plus Mesotrione at 25 g ai/ha / Synergy (actual vs expected), Plus Mesotrione at 50 g ai/ha: ‘n’indicates no synergy observed; *indicates synergy", "procedure": "as §1, §2, §3\nA glasshouse trial was carried out as described in Example 1, except that the herbicidal composition was applied pre-emergence, and lower rates of mesotrione were used as indicated below."}, "[2]": {"conditions": "oxadiazon 210 g ai/ha + mesotrione 100 g ai/ha"}, "[3]": {"conditions": "oxadiazon 210 g ai/ha + mesotrione 150 g ai/ha"}, "[4]": {"conditions": "oxadiazon 420 g ai/ha + mesotrione 100 g ai/ha"}, "[5]": {"conditions": "oxadiazon 420 g ai/ha + mesotrione 150 g ai/ha"}, "[6]": {"conditions": "oxadiazon 210 g ai/ha + mesotrione 25 g ai/ha"}, "[7]": {"conditions": "oxadiazon 210 g ai/ha + mesotrione 50 g ai/ha"}, "[8]": {"conditions": "oxadiazon 420 g ai/ha + mesotrione 25 g ai/ha"}, "[9]": {"conditions": "oxadiazon 420 g ai/ha + mesotrione 50 g ai/ha"}}}
{"substance": "5-tert-butyl-3-(2,4-dichloro-5-isopropoxyphenyl)-1,3,4-oxadiazol-2(3M-one [Oxadiazon]", "values": [{"measurement": "Expected weed control (Colby formula), Plus Mesotrione at 100 g ai/ha", "setting": "[1]; [2]", "value": 48, "unit": "%"}, {"measurement": "Synergy (actual vs expected), Plus Mesotrione at 100 g ai/ha", "setting": "[1]; [2]", "value": "n"}, {"measurement": "Actual weed control, Plus Mesotrione at 100 g ai/ha", "setting": "[1]; [2]", "value": 48, "unit": "%"}, {"measurement": "Expected weed control (Colby formula), Plus Mesotrione at 150 g ai/ha", "setting": "[1]; [3]", "value": 68, "unit": "%"}, {"measurement": "Synergy (actual vs expected), Plus Mesotrione at 150 g ai/ha", "setting": "[1]; [3]", "value": "*"}, {"measurement": "Actual weed control, Plus Mesotrione at 150 g ai/ha", "setting": "[1]; [3]", "value": 77, "unit": "%"}, {"measurement": "Expected weed control (Colby formula), Plus Mesotrione at 100 g ai/ha", "setting": "[1]; [4]", "value": 49, "unit": "%"}, {"measurement": "Synergy (actual vs expected), Plus Mesotrione at 100 g ai/ha", "setting": "[1]; [4]", "value": "*"}, {"measurement": "Actual weed control, Plus Mesotrione at 100 g ai/ha", "setting": "[1]; [4]", "value": 75, "unit": "%"}, {"measurement": "Expected weed control (Colby formula), Plus Mesotrione at 150 g ai/ha", "setting": "[1]; [5]", "value": 69, "unit": "%"}, {"measurement": "Synergy (actual vs expected), Plus Mesotrione at 150 g ai/ha", "setting": "[1]; [5]", "value": "*"}, {"measurement": "Actual weed control, Plus Mesotrione at 150 g ai/ha", "setting": "[1]; [5]", "value": 77, "unit": "%"}, {"measurement": "Actual weed control, Plus Mesotrione at 25 g ai/ha", "setting": "white clover; [6]", "value": 100, "unit": "%"}, {"measurement": "Expected weed control (Colby formula), Plus Mesotrione at 25 g ai/ha", "setting": "white clover; [6]", "value": 77, "unit": "%"}, {"measurement": "Synergy (actual vs expected), Plus Mesotrione at 25 g ai/ha", "setting": "white clover; [6]", "value": "*"}, {"measurement": "Actual weed control, Plus Mesotrione at 50 g ai/ha", "setting": "white clover; [7]", "value": 98, "unit": "%"}, {"measurement": "Expected weed control (Colby formula), Plus Mesotrione at 50 g ai/ha", "setting": "white clover; [7]", "value": 83, "unit": "%"}, {"measurement": "Synergy (actual vs expected), Plus Mesotrione at 50 g ai/ha", "setting": "white clover; [7]", "value": "*"}, {"measurement": "Actual weed control, Plus Mesotrione at 25 g ai/ha", "setting": "white clover; [8]", "value": 97, "unit": "%"}, {"measurement": "Expected weed control (Colby formula), Plus Mesotrione at 25 g ai/ha", "setting": "white clover; [8]", "value": 96, "unit": "%"}, {"measurement": "Synergy (actual vs expected), Plus Mesotrione at 25 g ai/ha", "setting": "white clover; [8]", "value": "*"}, {"measurement": "Actual weed control, Plus Mesotrione at 50 g ai/ha", "setting": "white clover; [9]", "value": 100, "unit": "%"}, {"measurement": "Expected weed control (Colby formula), Plus Mesotrione at 50 g ai/ha", "setting": "white clover; [9]", "value": 97, "unit": "%"}, {"measurement": "Synergy (actual vs expected), Plus Mesotrione at 50 g ai/ha", "setting": "white clover; [9]", "value": "*"}]}
